The structures appear in SMILES notation. Non-standard residues stand in square brackets, D forms with d. Residues, ends and D or L forms follow the SMILES beside them. *: point of attachment. 1Nal = N[C@@H](Cc1cccc2ccccc12)C(=O)O; Bn = c1ccc(C*)cc1

The assay deals with T1, NK2 receptor (Bos taurus, UniProt P05363).
T1 construct: The membrane fraction containing the receptor was prepared from the inner wall of the bovine third stomach; tissue Kyoto Chuo Chikusan Fukuseibutsu Oroshi Kyoukai (tissue); host or cells: inner wall of bovine third stomach, membrane fraction
T1 sequence (P05363 1-384): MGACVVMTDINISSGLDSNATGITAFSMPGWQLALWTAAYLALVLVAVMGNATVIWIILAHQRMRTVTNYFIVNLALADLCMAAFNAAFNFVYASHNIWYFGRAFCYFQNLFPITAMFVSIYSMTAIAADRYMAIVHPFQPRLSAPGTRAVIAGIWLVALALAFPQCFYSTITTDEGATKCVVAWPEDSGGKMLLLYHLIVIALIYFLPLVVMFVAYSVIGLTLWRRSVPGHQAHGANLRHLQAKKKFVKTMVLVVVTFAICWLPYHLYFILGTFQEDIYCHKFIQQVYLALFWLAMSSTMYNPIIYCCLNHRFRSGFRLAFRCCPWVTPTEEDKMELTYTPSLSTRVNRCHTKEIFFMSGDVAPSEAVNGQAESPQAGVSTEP
The assay can be described thus: Assay of affinity for receptor (3): binding inhibiting activity on NK2 receptor, 125I-neurokinin A, membrane fraction of bovine third stomach inner wall. Particulars: 125I-NKA, 25°C, 3 hours. As for the experimental part: Assay of Affinity for Receptor (3) ... Binding Inhibiting Activity on NK2 Receptor
The method of Paul L. M. Van Giersbergen et al. [Proc. Natl. Acad. Sci. U.S.A., 88, 1661 (1991) was modified for this assay. The membrane fraction containing the receptor was prepared from the inner wall of the bovine third stomach (purchased from Kyoto Chuo Chikusan Fukuseibutsu Oroshi Kyoukai).
The inner wall of the bovine third stomach stored at-80°C was cut to 1 cm X 1 cm or less, and disrupted in 3 liters/kg of 50 mM Tris-HCl buffer (pH 7.4) supplemented with 120 mM sodium chloride, 5 mM potassium chloride, 0.02% BSA and 5% sucrose, using a polytron homogenizer (Kinematika, Germany). Then, the disrupted product was centrifuged at 1,000 X g for 10 minutes. The supernatant was further centrifuged at 45,000 X g for 20 minutes. The precipitate was suspended in 200 ml of 50 mM Tris-HCl buffer (pH 7.4) supplemented with 300 mM potassium chloride, 10 mM ethylenediaminetetraacetic acid, 0.1 mM phenylmethylsulfonium fluoride and 0.02% BSA, and gently stirred under ice cooling for 60 minutes. The suspension was centrifuged at 45,000 X g for 20 minutes. The precipitate was washed with 200 ml of 50 mM Tris-HCl buffer (pH 7.4), and stored in the frozen state at -40°C as a receptor sample.
This sample was suspended in a reaction buffer solution [50 mM Tris-HCl buffer (pH 7.4), 0.02% bovine serum albumin and 4 mM manganese chloride] so as to give a protein concentration of 0.7 mg/ml, and 100 µl thereof was used for reaction. A test sample and ^125I-NKA (0.61 KBq, ^125I-neurokinin A, 81.4 TBq/mmol, Du Pont/NEN Research Products, U.S.A.) were also added, and reacted in 0.2 ml of the reaction buffer solution at 25°C for 3 hours. The reaction mixture was rapidly filtered through a glass filter (GF/B, Whatman, U.S.A.) using a cell harvester (Type 290PHD, Cambridge Technology Inc.) to terminate the reaction, and washed 3 times with 250 µl of 50 mM Tris-HCl buffer (pH 7.4) supplemented with 0.02% bovine serum albumin. The radioactivity left on the filter was measured with a gamma-ray counter. Results are shown in Table 1 as the binding inhibiting activity (IC50, unit: µM) on the NK2 receptor.
As to `CC(C)C[C@@H]1NC(=O)[C@@H](CC(C)C)NC(=O)[C@H](CC(=O)O)NC(=O)[C@H](Cc2c[nH]c3ccccc23)NC(=O)[C@@H](CC(=O)O)NC(=O)[C@@H](Cc2c[nH]c3ccccc23)NC1=O` [Example 8, cyclo[-D-Asp-Trp-Asp-D-Leu-Leu-D-Trp-]] (cyclo(D[dL]L[dW][dD]W)), the IC50 stood at 6400 nM.

With `CC(C)C[C@@H]1NC(=O)[C@@H](CC(C)C)NC(=O)[C@H](CC(=O)O)NC(=O)[C@H](Cc2cccc3ccccc23)NC(=O)[C@@H](CC(=O)O)NC(=O)[C@@H](Cc2c[nH]c3ccccc23)NC1=O` [Example 23, Cyclo[-D-Asp-Nal(1)-Asp-D-Leu-Leu-D-Trp-]] (cyclo([1Nal]D[dL]L[dW][dD])), the IC50 was determined as 2100 nM.

For the compound `CC(C)C[C@@H]1NC(=O)[C@@H](CC(C)C)NC(=O)[C@H](CCC(=O)O)NC(=O)[C@H](Cc2c[nH]c3ccccc23)NC(=O)[C@@H](CC(=O)O)NC(=O)[C@@H](Cc2c[nH]c3ccccc23)NC1=O` [Example 34, Cyclo[-D-Asp-Trp-Glu-D-Leu-Leu-D-Trp-]] (cyclo(E[dL]L[dW][dD]W)), the IC50 was 7400 nM.

Consider `CC(C)C[C@@H]1NC(=O)[C@H](Cc2c[nH]c3ccccc23)NC(=O)[C@@H](CC(=O)O)NC(=O)[C@@H](Cc2c[nH]c3ccccc23)NC(=O)[C@H](CC(C)C)NC(=O)[C@@H](CC(C)C)NC1=O` [Example 35, Cyclo[-D-Asp-Trp-Leu-D-Leu-Leu-D-Trp-]] (cyclo(L[dL]L[dW][dD]W)), for which the IC50 turned out to be 52 nM.

`CC(C)C[C@@H]1NC(=O)[C@@H](CC(C)C)NC(=O)[C@@H]2CCCN2C(=O)[C@H](Cc2c[nH]c3ccccc23)NC(=O)[C@@H](CC(=O)O)NC(=O)[C@@H](Cc2c[nH]c3ccccc23)NC1=O` [Example 36, Cyclo[-D-Asp-Trp-Pro-D-Leu-Leu-D-Trp-]] (cyclo(L[dW][dD]WP[dL])) yielded an IC50 of 1100 nM.

The compound `CC(C)C[C@@H]1NC(=O)[C@@H](CC(C)C)NC(=O)[C@H](CO)NC(=O)[C@H](Cc2c[nH]c3ccccc23)NC(=O)[C@@H](CC(=O)O)NC(=O)[C@@H](Cc2c[nH]c3ccccc23)NC1=O` [Example 37, Cyclo[-D-Asp-Trp-Ser-D-Leu-Leu-D-Trp-]] (cyclo(L[dW][dD]WS[dL])) returned a 50% inhibitory concentration (IC50) of 280 nM.

For the compound `CC(C)C[C@@H]1NC(=O)[C@@H](CC(C)C)NC(=O)[C@H](COCc2ccccc2)NC(=O)[C@H](Cc2c[nH]c3ccccc23)NC(=O)[C@@H](CC(=O)O)NC(=O)[C@@H](Cc2c[nH]c3ccccc23)NC1=O` [Example 38, Cyclo[-D-Asp-Trp-Ser(Bzl)-D-Leu-Leu-D-Trp-]] (cyclo(L[dW][dD]WS(Bn)[dL])), the IC50 is 70 nM.

A word on the IC50: it is the point on the concentration scale where inhibition reaches its midpoint. Read a low IC50 as inhibition by little substance.
